In PMC8954350, “Non-Canonical Cannabinoid Receptors with Distinct Binding and Signaling Properties in Prostate and Other Cancer Cell Types Mediate Cell Death” (International Journal of Molecular Sciences, 2022):
Where two headings read alike, the source gives them in different places.

Key:
[1] = tested on: CBRs expressed in DU-145 membranes; assay type: binding, human
Description: (§1) The assay was conducted as previously detailed. […] All binding reactions were conducted in triplicate, in a final volume of 1 mL, and, following mixing, were incubated for 20 min in a 37 °C water bath to achieve equilibrium. After incubation, reactions were terminated by rapid vacuum filtration through Whatman GF/B glass fiber filters (Brandel; Gaithersburg, MD, USA), followed by three washes of 4 mls of ice-cold filtration buffer (50 mM Tris, pH 7.4, and 0.05% bovine serum albumin). Samples were punched out from filter papers into scintillation vials, to which 4 mls of ScintiverseTM-BDR cocktail scintillation fluid (Fisher Scientific; Hampton, NH, USA) was added. Filters were incubated at room temperature for 24 h in scintillation fluid, vortexed, and radioactivity (measured as DPMs) was quantified via a liquid scintillation spectrophotometer (Tri Carb 2100 TR Liquid Scintillation Analyzer, Packard Instruments, Meriden, CT, USA).
(§2) These experiments were conducted to screen well-characterized cannabinoid ligands with high affinity for canonical CB1 and/or CB2Rs for binding to CBRs expressed in prostate cancer cells lines, as detailed in [33]. […] All binding reactions were conducted in triplicate, in a final volume of 1 mL, and, following mixing, were incubated for 20 min in a 37 °C water bath to achieve equilibrium. After incubation, reactions were terminated by rapid vacuum filtration and processed for radioactivity, as detailed in Section 4.5.1.

[2] = tested on: CBRs expressed in PC-3 membranes; assay: [^3H]WIN-55,212-2 competitive binding screen, PC-3 membranes; set-up: species or system human
Description: as §1, §2

[3] = tested on: DU-145 cells; assay: ATP-dependent cell viability, DU-145 cells; assay type: cell-based, human; settings: co-incubation with 10 μM ligand, 24 h
Description: Adenosine 5′-triphosphate (ATP) levels were quantified as a measure of DU-145 cell viability in response to cannabinoid treatement using an ATP-luciferase-based bioluminescence assay kit (CellTiter-Glo®, Sigma, MO, USA) and BioTek microplate reader (Winooski, VT, USA). DU-145 cells were seeded at a density of 8 × 10^3 cells/well in a 96-well plate and incubated for 24 h at 37 °C with 5% CO2. The next day, cells were treated with either vehicle or experimental drugs (10 or 50 μM) and incubated for another 24 h at 37 °C with 5% CO2. ATP levels were assessed following incubation by interpolation from an ATP standard curve according to the manufacturer’s protocol, as described previously.

[4] = tested on: DU-145 cells; assay: Mitochondrial membrane potential (JC-1 staining), DU-145 cells; assay type: cell-based, human; settings: 24 h
[5] = tested on: DU-145 cells; assay: LDH cytotoxicity, DU-145 cells; assay type: cell-based, human; settings: 500 nM, 24 h
Description: DU-145 cells were seeded at a density of 130 × 10^3 cells/well in 6-well plates and maintained in an incubator at 37 °C with 5% CO2 for 24 h. […] Treated cells were incubated for an additional 24 h, followed by quantification of LDH release. LDH released from damaged or dying cells oxidizes lactate to produce NADH which then reacts with a water-soluble tetrazolium salt (WST) reagent to produce a yellow-colored product. The intensity of the yellow-colored product was detected with an OD reading at 450 nm (quantified by a BioTek microplate reader interfaced with SoftMax Pro 5.4.5 software; Winooski, VT, USA) and was directly proportional to the amount of LDH released. Percent cytotoxicity was calculated according to the manufacturer’s protocol as the following: % Cytotoxicity=OD450 Supernatant/Supernatant+Lysate

[6] = tested on: CBRs expressed in PC-3 membranes; assay: [^35S]GTPγS binding, PC-3 membranes; assay type: biochemical, human; settings: 10 μM
Description: [^35S]GTPγS binding experiments were conducted to examine G protein modulation by cannabinoids in prostate cancer cell lines DU-145 and PC-3, as detailed previously. Briefly, CHO-hCB2 (50 μg), PC3 (100 μg), or DU-145 (100 μg) membrane homogenates were incubated with a single receptor-saturating concentration (10^−5 M) of cannabinoid ligands to be examined and 0.1 nM [^35S]GTPγS in incubation buffer (20 mM HEPES buffer, pH 7.4, 10 μM GDP, 100 mM NaCl, 0.1% bovine serum albumin, and 10 mM MgCl2). Non-specific binding was defined as radioactivity remaining in the presence of 10 μM of non-radioactive GTPγS and subtracted from total binding to determine specific [^35S]GTPγS binding. All binding reactions were conducted in triplicate, in a final volume of 1 mL, and, following mixing, were incubated for 30 min at 30 °C. After incubation, reactions were terminated by rapid vacuum filtration through Whatman GF/B glass fiber filters (Brandel; Gaithersburg, MD, USA), followed by three washes of 4 mls of ice-cold filtration buffer (50 mM Tris, pH 7.4, and 0.05% bovine serum albumin). Samples were punched out from filter papers into scintillation vials, to which 4 mls of ScintiverseTM-BDR cocktail scintillation fluid (Fisher Scientific; Hampton, NH, USA) was added. Filters were incubated at room temperature for 24 h in scintillation fluid, vortexed, and radioactivity (measured as DPMs) was determined via a liquid scintillation spectrophotometer (Tri Carb 2100 TR Liquid Scintillation Analyzer, Packard Instruments, Meriden, CT, USA).

[7] = tested on: CBRs expressed in DU-145 membranes; assay type: biochemical, human; settings: 10 μM
Description: Non-specific binding was defined as radioactivity remaining in the presence of 10 μM of non-radioactive GTPγS and subtracted from total binding to determine specific [^35S]GTPγS binding. All binding reactions were conducted in triplicate, in a final volume of 1 mL, and, following mixing, were incubated for 30 min at 30 °C. After incubation, reactions were terminated by rapid vacuum filtration through Whatman GF/B glass fiber filters (Brandel; Gaithersburg, MD, USA), followed by three washes of 4 mls of ice-cold filtration buffer (50 mM Tris, pH 7.4, and 0.05% bovine serum albumin). Samples were punched out from filter papers into scintillation vials, to which 4 mls of ScintiverseTM-BDR cocktail scintillation fluid (Fisher Scientific; Hampton, NH, USA) was added. Filters were incubated at room temperature for 24 h in scintillation fluid, vortexed, and radioactivity (measured as DPMs) was determined via a liquid scintillation spectrophotometer (Tri Carb 2100 TR Liquid Scintillation Analyzer, Packard Instruments, Meriden, CT, USA).

[8] = 1 μM ligand, 1 nM radioligand, PC-3 membranes

SMILES	displacement of [^3H]WIN-55,212-2 [1]	displacement of [^3H]WIN-55,212-2 [2, 8]	other results
CC(C)[C@H](NC(=O)c1nn(CCCCCF)c2ccccc12)C(N)=O [5F-AB-PINACA]	failed to displace	failed to displace	
O=C(NC12CC3CC(CC(C3)C1)C2)c1nn(CCCCCF)c2ccccc12 [5F-AKB48]	failed to displace		displacement of [^3H]WIN-55,212-2 [2]: failed to displace
CCCCC/C=C\C/C=C\C/C=C\C/C=C\CCCC(=O)NCCCl [ACEA]	failed to displace		displacement of [^3H]WIN-55,212-2 [2]: failed to displace
Cc1c(C(=O)NN2CCCCC2)nn(-c2ccc(Cl)cc2Cl)c1-c1ccc(I)cc1 [AM-251]			attenuation of GW-405833 (50 μM)-induced reduction in ATP concentrations [3]: significantly attenuated reductions in ATP concentrations produced by GW-405833; MMP on co-incubation with GW-405833 (10 μM) ([4]; 10 μM ligand co-incubated): MMP was not significantly reduced from vehicle-treated levels
C=C(C)[C@@H]1CCC(C)=C[C@H]1c1c(O)cc(CCCCC)cc1O [CBD, cannabidiol]	failed to displace	failed to displace	
O=C(Oc1cccc2ccccc12)c1cn(Cc2ccc(F)cc2)c2ccccc12 [FDU-PB-22]	failed to displace	failed to displace	
CC(C)c1ccc(NC(=O)Cn2cnc3c2c(=O)n(C)c(=O)n3C)cc1 [HC-030031]	Neither the high affinity TRPV1 ligands capsaicin [38], PDDHV [39], and CAY-100448 [40] nor the TRPA1 ligand HC-030031 [41] produced significant displacement		
Cc1c(C(=O)Nc2cccc(C(F)(F)F)c2)cc(-c2ccccc2)n1CCCN1CCOCC1 [HC-067047]	22 ± 3.8%		
Cc1ccc(C(=O)c2cn(CCCCCF)c3ccccc23)c2ccccc12 [MAM-2201]	failed to displace	failed to displace	
CCCCCCCC/C=C\CCCCCCCC(=O)N[C@H](C(=O)O)C(C)C [N-oleoyl-valine]	15 ± 2.7%		
OCCOc1ccc(/C(=C(/CCCl)c2ccccc2)c2ccccc2)cc1 [OSP, ospemifene]	failed to displace		displacement of [^3H]WIN-55,212-2 [2]: failed to displace
CCCCCCCCCC(=O)O[C@@H]1[C@@H](C)[C@@]2(O)[C@@H](C=C(COC(=O)Cc3ccc(O)c(OC)c3)C[C@]3(O)C(=O)C(C)=C[C@@H]23)[C@@H]2C(C)(C)[C@]12OC(=O)CCCCCCCCC [PDDHV]	Neither the high affinity TRPV1 ligands capsaicin [38], PDDHV [39], and CAY-100448 [40] nor the TRPA1 ligand HC-030031 [41] produced significant displacement		
CCCCCc1cc(O)c2c(c1)OC(C)(C)[C@@H]1CCC(C)=C[C@@H]21 [THC, Δ^9-tetrahydrocannabinol]	failed to displace	failed to displace	
Cc1c(C(=O)c2cccc3ccccc23)c2cccc3c2n1[C@@H](CN1CCOCC1)CO3 [WIN-55,212-3]	13.9 ± 2.7%		displacement of [^3H]WIN-55,212-2 [2]: 20.7 ± 10.3%
COc1cc(CNC(=O)CCCC/C=C/C(C)C)ccc1O [capsaicin]	Neither the high affinity TRPV1 ligands capsaicin [38], PDDHV [39], and CAY-100448 [40] nor the TRPA1 ligand HC-030031 [41] produced significant displacement		
CC(=O)O[C@@]12CO[C@@H]1C[C@H](O)[C@@]1(C)C(=O)[C@H](O)C3=C(C)[C@@H](OC(=O)[C@H](O)[C@@H](NC(=O)OC(C)(C)C)c4ccccc4)C[C@@](O)([C@@H](OC(=O)c4ccccc4)[C@H]21)C3(C)C [docetaxel]			mitochondrial membrane potential (MMP) depolarization ([4]; 500 nM, JC-1): induced significant mitochondrial membrane depolarization; increase in LDH release [5]: 16.8 ± 3.4%
COc1ccc2c(c1)CCC(c1ccccc1)=C2c1ccc(OCCN2CCCC2)cc1 [nafoxidine]	produced significant (but less) displacement	produced significant (but less) displacement	modulation of [^35S]GTPγS binding [6]: had no effect on G protein activity; modulation of [^35S]GTPγS binding [7]: had no effect on G protein activity
